Test results: paper PMC9863691, “A Novel Ferroptosis Inhibitor UAMC-3203, a Potential Treatment for Corneal Epithelial Wound” (Pharmaceutics, 2022)
≈ marks a conversion by molar mass, not a printed value.

What was measured:
solubility in buffers = type: physicochemical; settings: for water solubility: room temperature, 72 h
Method: Compound UAMC-3203 was synthetized in the laboratory of Medicinal Chemistry at the University of Antwerp, as reported by Devisscher L. et al.. Solubility of UAMC-3203 was determined in 0.1 M citrate buffer (pH 5 and pH 6) and phosphate-buffered saline (PBS, Gibco, Life Technologies Limited, Paisley, UK) at pH 7.4. Excess of UAMC-3203 (10–20 mg) was added to 500 µL of buffer in glass vials that were kept at room temperature and mixed (150 rpm) for 72 h. The pH of the solutions was measured daily with calibrated pH meter (Orion Research Incorporated, Boston, MA, USA) and adjusted if needed (with 0.1 N sodium hydroxide or 0.1 N hydrochloric acid). After 72 h, samples were withdrawn and centrifuged at 13,000 rpm for 15 min. The supernatant was collected and analyzed by high-pressure liquid chromatography (HPLC) for UAMC-3203 concentration.
(§1) The quantitation of UAMC-3203 was performed with […] reverse-phase HPLC system consisting of a degasser (G1379B), multi-sampler (G1367D), a binary pump (G1312B), a thermostat (G1316B), and a diode array detector (DAD) detector (G1315C). A Zorbax Eclipse XDB-C18 (4.6 × 50 mm, 4 μm; Agilent Technologies, Santa Clara, CA, USA) column was used for the analyses. The mobile phase was composed of 0.1% […] (Sigma-Aldrich, St. Louis, MO, USA) in Milli-Q-H2O and 0.1% […] in acetonitrile (LC-MS Chromasolv, Honeywell, Riedel-de Haen, Seelze, Germany) (65:35% v/v). Isocratic analysis was performed at a flow rate of 1 mL/min. The injection volume was 5 μL, and the detection wavelength was 240 nm.

[1] = chemical stability of 100 µM solution in PBS; type: physicochemical
Method: The chemical stability of 100 µM UAMC-3203 in PBS (pH 7.4) was investigated for 30 days as described previously. Briefly, four batches with triplicates were stored at 4, 25, or 37 °C with light protection and at 25 °C without light protection. Separate solutions were used for pH-dependent stability studies. Samples were collected, and pH was measured at various times. The samples were stored at −20 °C until HPLC analysis.
as §1

HCE cells = assay: in vitro cytotoxicity, MTT assay; type: cell-based, human; settings: 3 h exposure
Method: The cytotoxicity of UAMC-3203 was assessed by MTT assay. The HCE cells were seeded on a 96-well plate at a density of 100,000 cells/well in 200 µL of supplemented growth medium. The next day the cells were washed with PBS (pH 7.2). The cells were then exposed to UAMC-3203 at concentrations 10 nM, 1 µM, 10 µM, and 50 µM for 3 h. For control, cells not exposed to UAMC-3203 cultured in a serum-free medium were used. The cells were then washed twice with PBS and incubated 2 h with 100 µL of 10% of thiazolyl blue tetrazolium bromide (MTT, Sigma-Aldrich, St. Louis, MO, USA) in a serum-free medium. An amount of 100 µL of 20% (w/v) sodium dodecyl sulfate (SDS), N-dimethylformamide (DMF) lysis buffer was added to each well and incubated overnight. The following day, cell viability was evaluated by measuring absorbance at 570 nm with a Victor^2 multilabel plate reader (PerkinElmer, Wallac, St. Paul, MN, USA). The cell viability % was calculated as below:(2) % of cell viability=Abs exposed cells−Abs blank/Abs non−exposed cells−Abs blank×100 where Abs exposed cells = absorbance of cells exposed to UAMC-3203; Abs blank = absorbance of well plates without cells; and Abs non–exposed cells = Absorbance of cells exposed to serum-free medium (i.e., control).

[2] = test system: alkali burn corneal wounds in ex vivo mouse eyes; assay: corneal epithelial wound healing in ex vivo mouse eyes; design: species or system C57BL/6 mice; settings: for initial wound area: 0–2 h after wound
Text: For the study, C57BL/6 mice (Laboratory Animal Centre, the University of Eastern Finland) were euthanized, and the eyes were excised carefully with sterile forceps and micro-scissors to avoid any damage to the cornea. The eyes were transported in ice-cold Dulbecco’s modified Eagle’s Medium/Ham’s F12 (DMEM/F-12, Gibco, Life Technologies, Carlsbad, CA, USA). Then the eyes were adhered to a Petri dish with tissue adhesive (3M Vetbond, St. Paul, MN, USA). The corneal epithelial wound was produced by placing an alkali soaked (0.5% sodium hydroxide) Whitman filter paper of 2 mm diameter on the corneal surface for 2 min, as reported earlier. After removal of the filter paper, the remaining epithelium on the alkali-exposed surface was carefully removed with a micro scalpel, and the eyes were rinsed with PBS. Pre-warmed UAMC-3203 (10 mL of 10 nM, 1µM, 10 µM, and 50 µM solutions) was added in serum-free media that was supplemented with 1% penicillin-streptomycin solution ([…], 0.1 mg/mL streptomycin) (Corning, Ref 30-002-CI, Mediatech Inc., Discovery Boulevard, Manassas, VA, USA) to the Petri dishes so that the eyes were submerged. The serum-free medium without UAMC-3203 was used as the negative control, and the medium with 10% FBS was used as the positive control. The samples were cultivated under standard tissue culture conditions (37 °C, 5% CO2-atmosphere, and 95% relative humidity) for 48 h. In order to measure the wound area, images were taken with a Zeiss Axio Scope A1 microscope (Carl Zeiss Microscopy GmbH, Oberkochen, Germany) at different time points (initial (in less than 2 h after wound), 6, 24, 30, and 48 h). For imaging, the media was removed from the dish, and 0.1% fluorescein (2 µL) was added to the corneal surface, followed by PBS (10 µL) to rinse excess fluorescein. A clean tissue was then used to soak excess fluorescein and PBS, and the medium was added again to the dish after imaging. The medium was changed after 24 h. The wound area was quantified with Fiji software.

ferroptosis = test system: ferroptosis; design: method as in PMID 30354101; settings: read-out: in vitro potency IC50 (ferroptosis); cited from earlier work
[3] = pH 7.4

O=S(=O)(NCCN1CCNCC1)c1ccc(NC2CCCCC2)c(NCc2ccccc2)c1 [UAMC-3203]
solubility at pH 6.0 and 7.4 relative to pH 5.0 (solubility in buffers): about 3.5 times
water solubility (solubility in buffers; pH 5.0, 0.1 M citrate buffer): 36.7 ± 5.7 µM (≈ 17.3 µg/mL)
water solubility (solubility in buffers; pH 6.0, 0.1 M citrate buffer): 127.9 ± 16.1 µM (≈ 60.3 µg/mL)
water solubility (solubility in buffers; pH 7.4, PBS): 127.3 ± 17.3 µM (≈ 60 µg/mL)
% of initial concentration at day 30 ([1]; 100 µM in PBS pH 7.4, various temperatures and light exposure conditions): about 90%
pH of the solution during 30 days ([1]; starting pH 7.4, all conditions): 7.5–7.6
toxicity to HCE cells (HCE cells; 10 nM): did not cause any toxicity
toxicity to HCE cells (HCE cells; 1 µM): did not cause any toxicity
HCE cell viability (HCE cells; 10 µM): 75 ± 6.7%
HCE cell viability (HCE cells; 50 µM): 39.2 ± 5.6%
initial wound area ([2]; 10 nM): 2.59 ± 0.27 mm^2
wound area at 48 h ([2]; 10 nM): 0.22 ± 0.16 mm^2
wound area compared to negative control ([2]; 10 nM, p = 0.03): significantly lower wound area at 48 h
wound healing ([2]; 10 nM–10 µM): > 85%
wound area compared to negative control ([2]; 1 µM): no notable difference at any time point
initial wound area ([2]; 1 µM): 2.46 ± 0.42 mm^2
wound area at 48 h ([2]; 1 µM): 0.35 ± 0.3 mm^2
initial wound area ([2]; 10 µM): 2.44 ± 0.52 mm^2
wound area at 48 h ([2]; 10 µM): 0.10 ± 0.21 mm^2
wound area compared to negative control ([2]; 10 µM, p ≤ 0.005): significant difference in wound area at 24–48 h
change of corneal epithelial wound area ([2]; 50 µM): did not cause any changes in the corneal epithelial wound area
optimal concentration for wound healing ([2]; ex vivo): 10 µM
IC50 (ferroptosis): 10 nM
Log D7.4 [3]: 0.95
